From patent US6458960B1, “Sulfonamide derivatives” (Nippon Kayaku Kabushiki Kaisha, priority 1997, dated 2002)
Values after ≈ are worked out from the molar mass of the structure shown.

Key:
[1] = system: A2780 (Humane Ovarian Cancer Cell); experiment: Anti-tumor in vitro test using A2780 (MTT); type: cell-based; details: Homo sapiens, A2780, 72 h, 3 days incubation, absorbance at 540 nm, read-out: IC50 (A2780 growth inhibition)
Description: A2780 cells that were suspended on a RPMI 1640 culture medium containing 10% calf serum, penicillin (50 U/ml), and streptomycin (50 μg/ml were seeded in a 96 well flat microplate by 1000 cells (0.2 ml) well, and cultured in a 5% carbon dioxide atmospheric incubator at 37° C. for 1 day. The compounds of the present invention that were dissolved in dimetylsulfoxide anddiluted with a RPMI 1640 containing 10% calf serum to prepare the samples, provided that dimetylsulfoxide was restricted to 0.2% and below in concentration.
The Supernatant liquids of the above A2780 cells wells were removed by aspiration, and then each 0. 2 ml of the prepared samples were added to the wells, which were incubated in a 5% carbon dioxide atmospheric incubator at 37° C. for 3 days. After the incubation, each 0.01 ml of MTT solutions(3-(4,5-dimethylthiazole-2-yl)-2,5-dipheny-ltetra zolium bromide, 5 mg/ml) were added to the wells, which were incubated for another 2 hrs. After the supernatant liquids in the wells were removed by aspiration, the formazans formed in the wells were dissolved in 0.1 ml of dimetylsulfoxide, and absorbances at 540 nm were measured by a micro plate reader to determine indices of live cells counts in the wells.
Inhibitory Rate(%)=[(C−T)/C]×100
where T is absorbance in the well with a test compound and C is absorbance in the well without the compound.

[2] = target: T1, microtubule proteins originated from swine brain (Sus scrofa, UniProt P02550+P02554); experiment: Tubulin polymerization inhibitory test (turbidity measurement); type: biochemical; details: microtubule proteins 2 mg/ml, GTP 1 mM, 37° C. for 30 min, absorbance at 340 nm; read-out: IC50 (tubulin polymerization inhibition) (converted)
T1 construct: Microtubule proteins was extracted from swine brain by the Shelansky method; from tissue; host or cells: swine brain
T1 sequence (P02550 whole entry): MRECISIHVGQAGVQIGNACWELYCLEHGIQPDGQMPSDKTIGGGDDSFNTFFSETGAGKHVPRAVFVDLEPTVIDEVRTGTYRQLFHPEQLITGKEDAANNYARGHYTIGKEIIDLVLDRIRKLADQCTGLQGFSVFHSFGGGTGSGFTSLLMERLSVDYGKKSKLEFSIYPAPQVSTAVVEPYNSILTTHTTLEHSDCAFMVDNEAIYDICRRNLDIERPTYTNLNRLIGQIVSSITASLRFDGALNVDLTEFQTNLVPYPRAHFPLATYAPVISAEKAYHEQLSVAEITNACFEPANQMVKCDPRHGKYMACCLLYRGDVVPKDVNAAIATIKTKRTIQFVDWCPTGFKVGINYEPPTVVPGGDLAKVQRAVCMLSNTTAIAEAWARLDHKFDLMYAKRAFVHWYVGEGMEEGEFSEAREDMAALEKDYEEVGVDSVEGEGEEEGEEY
T1 sequence (P02554 whole entry): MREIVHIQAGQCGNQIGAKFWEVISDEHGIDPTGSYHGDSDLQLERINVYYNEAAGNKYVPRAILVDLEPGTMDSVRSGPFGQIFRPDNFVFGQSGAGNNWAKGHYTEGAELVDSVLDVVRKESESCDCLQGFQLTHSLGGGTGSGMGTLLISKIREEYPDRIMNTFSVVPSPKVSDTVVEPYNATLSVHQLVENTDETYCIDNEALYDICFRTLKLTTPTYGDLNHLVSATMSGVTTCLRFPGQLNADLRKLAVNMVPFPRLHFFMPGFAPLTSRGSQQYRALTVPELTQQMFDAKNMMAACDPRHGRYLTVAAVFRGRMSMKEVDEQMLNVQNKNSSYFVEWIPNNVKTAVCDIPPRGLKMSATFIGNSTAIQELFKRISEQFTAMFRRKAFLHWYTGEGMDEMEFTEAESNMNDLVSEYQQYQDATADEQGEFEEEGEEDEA
Description: Tubulin polymerization inhibitory test using microtubule proteins originated from swine brain: Microtubule proteins was extracted from swine brain by the Shelansky method(Tanpakusitu jikkenhou, Zoku-Seikagaku Jikken Kouza, Vol.6, “Structure and Function of Cytoskeleton” (1st Vol.), Tokyo Kagaku Dojin). Polymerization of microtubule proteins was assayed by turbidity measurement.
Change in turbidity can be measured by an absorptiometer. The compounds of the present invention were dissolved in dimethylsulfoxide to prepare their test solutions. To 245 μl of a RB solution containing microtubule proteins(2 mg/ml)and GTP(1 mM) was added 5μl of either an above test solution or dimethylsulfoxide to prepare a sample, which was incubated at 37° C. for 30 min. […] Absorbance at 340 nm of the compound was previously measured.
Inhibitory Rate(%)=[1−(T−Cmin)/(Cmax−Cmin)]×100
where T is absorbance of the incubated sample with a test compound, Cmax is absorbance of the incubated sample without the compound, and Cmin is the non-incubated sample without the compound.

[3] = system: collagen-induced arthritis in mice; experiment: Prophylactic experiment of collagen-induced arthritis in mice; type: in vivo; details: last day of test
Description: The suspension of M. tuberculosis H37RA in Freund […] adjuvant (2 mg/ml) was mixed with 0.3% typeII collagen (extracted from bovine articular cartilage, Collagen Gijutsu KensyU Kai) in their equal amounts to form an emulsion, 0.1 ml of which was injected subcutaneously into the base of the tail of mice to sensitize it. After twenty-one days, 0.3% type II collagen was diluted with physiological saline solution to the one sixth concentration of the solution, 0.2 ml of which was injected intraperitoneally to sensitize secondarily. The mice that the first sensitizations caused to fall into arthritis were excluded from the test. The suspensions of the compounds(in the Example 13, 27, and 28) in 0.5% sodium carboxy methylcellulose (CMC—Na) were administrated orally to the test group mice once a day for 5 weeks from the day after the second sensitization. 0.5% CMC—Na solutions were administrated to the control group mice to be compared with. Each group was composed of eight mice. […] Scores and their standards are as follows.
1: Tumefaction or rubor in only one finger(or heel)
2: Tumefaction or rubor in two or above fingers (or heels) or in parts of fore (or hind) paw(s)
3: Tumefaction or rubor in the wholes of fore (or hind) paw(s) including joints
4: Ankylosis in the joints of finger(s) (or heel(s)) or fore (or hind) paw(s)

[4] = 50 mg/kg orally once a day for 5 weeks

Row | SMILES | IC50 [1] [µg/mL] | IC50 [2] [µM] | Averaged score (arthritis, 0 to 4 per limb, maximum 16) ([3]; 25 mg/kg orally once a day for 5 weeks) | Averaged score (arthritis, 0 to 4 per limb, maximum 16) [3, 4]
1 | COc1ccc(S(=O)(=O)Nc2ccccc2NC(=O)C2CSCN2)cc1.Cl (racemic) [Example 15, (±)-N-[2-(4-Methoxybenzenesulfonamide)phenyl]-4-thiazolidine Carboxamide HCl Salt] | 0.025 | 4.3 | – | –
2 | COc1ccc(S(=O)(=O)Nc2ccccc2NC(=O)C2CCCCN2)cc1.Cl (racemic) [Example 20, (±)-N-[2-4-Methoxybenzenesulfonamide)phenyl]-2piperidine Carboxamide HCl Salt] | 6.8 | – | – | –
3 | COc1ccc(S(=O)(=O)Nc2ccccc2NC(=O)c2cnoc2C)cc1 [Example 1, N-[2-(4-Methoxybenzenesulfonamide)phenyl]-5-methyl-4-isoxazole Carboxamide] | 0.023 (≈ 0.0594 µM) | 3.1 | – | –
4 | COc1ccc(S(=O)(=O)Nc2ccccc2NC(=O)c2cn(C)nc2C)cc1 [Example 2, N-[2-(4-Methoxybenzenesulfonamide)phenyl]-3-dimethyl-4-(1H-pyrazole)carboxamide] | 0.58 (≈ 1.45 µM) | 89.9 | – | –
5 | COc1ccc(S(=O)(=O)Nc2ccccc2NC(=O)c2csc(C)n2)cc1 [Example 3, N-[2-(4-Methoxybenzenesulfonamide)phenyl]-2-methyl-4-thiazole Carboxamide] | 0.22 (≈ 0.545 µM) | 94.2 | – | –
6 | COc1ccc(S(=O)(=O)Nc2ccccc2NC(=O)c2csnc2C)cc1 [Example 4, N-[2-(4-Methoxybenzenesulfonamide)phenyl]-3-methyl-4-isothiazole Carboxamide] | 0.017 (≈ 0.0421 µM) | 3.47 | – | –
7 | COc1ccc(S(=O)(=O)Nc2ccccc2NC(=O)c2nc(C)oc2C)cc1 [Example 5, N-[2-(4-Methoxybenzenesulfonamide)phenyl]-2,5-dimethyl-4-oxazole Carboxamide] | 7.2 (≈ 17.9 µM) | – | – | –
8 | COc1ccc(S(=O)(=O)Nc2ccccc2NC(=O)c2cn(C)cn2)cc1 [Example 6, N-[2-(4-Methoxybenzenesulfonamide)phenyl]-1-methyl-1H-imidazole-4-carboxamide] | 0.14 (≈ 0.362 µM) | 101 | – | –
9 | Cc1ccc(S(=O)(=O)Nc2ccccc2NC(=O)c2cnoc2C)cc1 [Example 7, N-[2-(p-Toluenesulfonamide)phenyl]-5-methyl-4-isoxazole Carboxamide] | 0.2 (≈ 0.538 µM) | 13.7 | – | –
10 | Cc1oncc1C(=O)Nc1ccccc1NS(=O)(=O)c1ccccc1 [Example 8, N-[2-(Benzenesulfonamide)phenyl]-5-methyl-4-isoxazole Carboxamide] | 6.7 (≈ 18.7 µM) | 644 | – | –
11 | Cc1oncc1C(=O)Nc1ccccc1NS(=O)(=O)c1ccc(F)cc1 [Example 9, N-[2-(4-Fluorobenzenesulfonamide)phenyl]-5-methyl-4-isoxazole Carboxamide] | 13 (≈ 34.6 µM) | 400 | – | –
12 | COc1ccc(S(=O)(=O)Nc2ccccc2NC(=O)c2cnoc2C)cc1OC [Example 11, N-[2-(3,4-Dimethoxybenzenesulfonamide)phenyl]-5-methyl-4-isoxazole Carboxamide] | 0.68 (≈ 1.63 µM) | 359 | – | –
13 | COc1ccc(S(=O)(=O)Nc2ccccc2NC(=O)[C@@H]2CCCN2)cc1.Cl [Example 12, N-[2-(4-Methoxybenzenesulfonamide)phenyl]-(L)-prolinamide HCl Salt] | 9.7 | – | – | –
14 | COc1ccc(S(=O)(=O)Nc2ccccc2NC(=O)c2c(C)noc2C)cc1 [Example 13, N-[2-(4-Methoxybenzenesulfonamide)phenyl]-3,5-dimethyl-4-isoxazole Carboxamide] | 0.01 (≈ 0.0249 µM) | 3.49 | 2.3 ± 0.8 | 0.4 ± 0.4
15 | CCc1oncc1C(=O)Nc1ccccc1NS(=O)(=O)c1ccc(OC)cc1 [Example 14, N-[2-(4-Methoxybenzenesulfonamide)phenyl]-5-ethyl-4-isoxazole Carboxamide] | 0.036 (≈ 0.0897 µM) | 4.11 | – | –
16 | COc1ccc(S(=O)(=O)Nc2ccccc2NC(=O)[C@H]2CCCN2)cc1.Cl [Example 17] | 1.4 | – | – | –
17 | COc1ccc(S(=O)(=O)Nc2ccccc2NC(=O)c2ncoc2C)cc1 [Example 21, N-[2-(4-Methoxybenzenesulfonamide)phenyl]-5-methyl-4-oxazole Carboxamide] | 0.079 (≈ 0.204 µM) | 12.1 | – | –
18 | COc1ccc(S(=O)(=O)Nc2ccccc2NC(=O)C2CCCCC2)cc1 [Example 22, N-[2-(4-Methoxybenzenesulfonamide)phenyl]-cyclohexyl Carboxamide] | 0.14 (≈ 0.36 µM) | 4.89 | – | –
19 | COc1ccc(S(=O)(=O)Nc2ccccc2NC(=O)C2CC2)cc1 [Example 23, N-[2-(4-Methoxybenzenesulfonamide)phenyl]-cyclopropyl Carboxamid] | 0.006 (≈ 0.0173 µM) | 3.46 | – | –
20 | COc1ccc(S(=O)(=O)Nc2ccccc2NC(=O)C2CCC2)cc1 [Example 24, N-(2-(4-Methoxybenzenesulfonamide)phenyl]-cyclobutyl Carboxamid] | 0.006 (≈ 0.0166 µM) | 3.19 | – | –
21 | COc1ccc(S(=O)(=O)Nc2ccccc2NC(=O)C2CCCC2)cc1 [Example 25] | 0.05 (≈ 0.134 µM) | 4.14 | – | –
22 | COc1ccc(S(=O)(=O)Nc2ccccc2NC(=O)c2cccn2C)cc1 [Example 26, N-[2-(4-Methoxybenzenesulfonamide)phenyl]-N-methyl-2-pyrrole Carboxamide] | 0.034 (≈ 0.0882 µM) | 4.93 | – | –
23 | CCc1noc(C)c1C(=O)Nc1ccccc1NS(=O)(=O)c1ccc(OC)cc1 [Example 27, N-[2-(4-Methoxybenzenesulfonamide)phenyl]-3-ethyl-5-methyl-4-isoxazole Carboxamide] | 0.034 (≈ 0.0818 µM) | 4.45 | – | 1.7 ± 1.1
24 | CCc1onc(C)c1C(=O)Nc1ccccc1NS(=O)(=O)c1ccc(OC)cc1 [Example 28, N-[2-(4-Methoxybenzenesulfonamide)phenyl]-5-ethyl-3-methyl-4-isoxazole Carboxamide] | 0.013 (≈ 0.0313 µM) | 3.13 | – | 3.0 ± 1.1
25 | CCc1noc(CC)c1C(=O)Nc1ccccc1NS(=O)(=O)c1ccc(OC)cc1 [Example 29, N-[2-(4-Methoxybenzenesulfonamide)phenyl]-3,5-diethyl-4-isoxazole Carboxamide] | 0.14 (≈ 0.326 µM) | 9.2 | – | –
26 | COc1ccc(S(=O)(=O)Nc2ccccc2NC(=O)c2c(C)noc2C(C)C)cc1 [Example 30, N-[2-(4-Methoxybenzenesulfonamide)phenyl]-5-isopropyl-3-methyl-4-isoxazole Carboxamide] | 0.16 (≈ 0.373 µM) | 7.68 | – | –
27 | COc1ccc(S(=O)(=O)Nc2ccccc2NC(=O)c2c(-c3ccccc3)noc2C)cc1 [Example 31, N-[2-(4-Methoxybenzenesulfonamide)phenyl]-5-methyl-3-phenyl-4-isoxazole Carboxamide] | 0.3 (≈ 0.647 µM) | – | – | –
28 | COc1ccc(S(=O)(=O)Nc2ccccc2NC(=O)c2c(C)noc2-c2ccccc2)cc1 [Example 32, N-[2-(4-Methoxybenzenesulfonamide)phenyl]-3-methyl-5-phenyl-4-isoxazole Carboxamide] | 0.62 (≈ 1.34 µM) | – | – | –
